This is an account of results in ChEMBL document CHEMBL3860026, “Depsidones from Lichens as Natural Product Inhibitors of M-Phase Phosphoprotein 1, a Human Kinesin Required for Cytokinesis” (J Nat Prod, 2016).

Data set [1] has as its target T1, Kinesin-like protein KIF3B (Homo sapiens) (UniProt O15066).
T1 sequence (whole entry): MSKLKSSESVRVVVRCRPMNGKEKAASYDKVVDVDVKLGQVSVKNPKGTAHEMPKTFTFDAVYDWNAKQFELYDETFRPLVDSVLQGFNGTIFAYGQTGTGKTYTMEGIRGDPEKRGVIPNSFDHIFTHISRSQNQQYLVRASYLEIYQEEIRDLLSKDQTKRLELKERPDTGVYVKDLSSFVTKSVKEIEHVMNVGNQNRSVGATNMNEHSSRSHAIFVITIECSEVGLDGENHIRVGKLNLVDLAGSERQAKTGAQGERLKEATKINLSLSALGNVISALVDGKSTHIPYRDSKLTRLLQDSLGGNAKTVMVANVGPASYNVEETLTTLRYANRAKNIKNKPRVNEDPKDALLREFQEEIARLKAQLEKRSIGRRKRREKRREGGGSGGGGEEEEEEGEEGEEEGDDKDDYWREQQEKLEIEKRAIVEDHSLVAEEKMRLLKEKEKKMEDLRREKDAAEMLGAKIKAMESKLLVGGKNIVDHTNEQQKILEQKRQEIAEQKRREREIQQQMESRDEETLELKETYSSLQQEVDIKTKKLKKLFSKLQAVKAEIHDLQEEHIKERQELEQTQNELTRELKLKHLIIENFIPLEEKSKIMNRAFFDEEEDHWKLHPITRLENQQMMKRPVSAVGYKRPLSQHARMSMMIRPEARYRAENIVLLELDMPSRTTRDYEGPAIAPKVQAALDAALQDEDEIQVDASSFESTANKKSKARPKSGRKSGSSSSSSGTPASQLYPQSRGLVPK
The experiment in a line: Inhibition of microtubule-stimulated ATPase activity of human Kif3B at 200 uM by pyruvate kinase/lactate dehydrogenase-linked assay.

Data set [2] in a line: Cytotoxicity against human BxPC3 cells assessed as growth inhibition after 72 hrs by Alamar Blue assay. Type of data set: functional, cell-based. To be noted: BXPC-3, 72 h.
Data set [3] deals with Centromere-associated protein E (Homo sapiens, UniProt Q02224). The experiment in a line: Inhibition of basal ATPase activity of human CENP-E by pyruvate kinase/lactate dehydrogenase-linked assay.
Sequence of Centromere-associated protein E (Q02224 whole entry): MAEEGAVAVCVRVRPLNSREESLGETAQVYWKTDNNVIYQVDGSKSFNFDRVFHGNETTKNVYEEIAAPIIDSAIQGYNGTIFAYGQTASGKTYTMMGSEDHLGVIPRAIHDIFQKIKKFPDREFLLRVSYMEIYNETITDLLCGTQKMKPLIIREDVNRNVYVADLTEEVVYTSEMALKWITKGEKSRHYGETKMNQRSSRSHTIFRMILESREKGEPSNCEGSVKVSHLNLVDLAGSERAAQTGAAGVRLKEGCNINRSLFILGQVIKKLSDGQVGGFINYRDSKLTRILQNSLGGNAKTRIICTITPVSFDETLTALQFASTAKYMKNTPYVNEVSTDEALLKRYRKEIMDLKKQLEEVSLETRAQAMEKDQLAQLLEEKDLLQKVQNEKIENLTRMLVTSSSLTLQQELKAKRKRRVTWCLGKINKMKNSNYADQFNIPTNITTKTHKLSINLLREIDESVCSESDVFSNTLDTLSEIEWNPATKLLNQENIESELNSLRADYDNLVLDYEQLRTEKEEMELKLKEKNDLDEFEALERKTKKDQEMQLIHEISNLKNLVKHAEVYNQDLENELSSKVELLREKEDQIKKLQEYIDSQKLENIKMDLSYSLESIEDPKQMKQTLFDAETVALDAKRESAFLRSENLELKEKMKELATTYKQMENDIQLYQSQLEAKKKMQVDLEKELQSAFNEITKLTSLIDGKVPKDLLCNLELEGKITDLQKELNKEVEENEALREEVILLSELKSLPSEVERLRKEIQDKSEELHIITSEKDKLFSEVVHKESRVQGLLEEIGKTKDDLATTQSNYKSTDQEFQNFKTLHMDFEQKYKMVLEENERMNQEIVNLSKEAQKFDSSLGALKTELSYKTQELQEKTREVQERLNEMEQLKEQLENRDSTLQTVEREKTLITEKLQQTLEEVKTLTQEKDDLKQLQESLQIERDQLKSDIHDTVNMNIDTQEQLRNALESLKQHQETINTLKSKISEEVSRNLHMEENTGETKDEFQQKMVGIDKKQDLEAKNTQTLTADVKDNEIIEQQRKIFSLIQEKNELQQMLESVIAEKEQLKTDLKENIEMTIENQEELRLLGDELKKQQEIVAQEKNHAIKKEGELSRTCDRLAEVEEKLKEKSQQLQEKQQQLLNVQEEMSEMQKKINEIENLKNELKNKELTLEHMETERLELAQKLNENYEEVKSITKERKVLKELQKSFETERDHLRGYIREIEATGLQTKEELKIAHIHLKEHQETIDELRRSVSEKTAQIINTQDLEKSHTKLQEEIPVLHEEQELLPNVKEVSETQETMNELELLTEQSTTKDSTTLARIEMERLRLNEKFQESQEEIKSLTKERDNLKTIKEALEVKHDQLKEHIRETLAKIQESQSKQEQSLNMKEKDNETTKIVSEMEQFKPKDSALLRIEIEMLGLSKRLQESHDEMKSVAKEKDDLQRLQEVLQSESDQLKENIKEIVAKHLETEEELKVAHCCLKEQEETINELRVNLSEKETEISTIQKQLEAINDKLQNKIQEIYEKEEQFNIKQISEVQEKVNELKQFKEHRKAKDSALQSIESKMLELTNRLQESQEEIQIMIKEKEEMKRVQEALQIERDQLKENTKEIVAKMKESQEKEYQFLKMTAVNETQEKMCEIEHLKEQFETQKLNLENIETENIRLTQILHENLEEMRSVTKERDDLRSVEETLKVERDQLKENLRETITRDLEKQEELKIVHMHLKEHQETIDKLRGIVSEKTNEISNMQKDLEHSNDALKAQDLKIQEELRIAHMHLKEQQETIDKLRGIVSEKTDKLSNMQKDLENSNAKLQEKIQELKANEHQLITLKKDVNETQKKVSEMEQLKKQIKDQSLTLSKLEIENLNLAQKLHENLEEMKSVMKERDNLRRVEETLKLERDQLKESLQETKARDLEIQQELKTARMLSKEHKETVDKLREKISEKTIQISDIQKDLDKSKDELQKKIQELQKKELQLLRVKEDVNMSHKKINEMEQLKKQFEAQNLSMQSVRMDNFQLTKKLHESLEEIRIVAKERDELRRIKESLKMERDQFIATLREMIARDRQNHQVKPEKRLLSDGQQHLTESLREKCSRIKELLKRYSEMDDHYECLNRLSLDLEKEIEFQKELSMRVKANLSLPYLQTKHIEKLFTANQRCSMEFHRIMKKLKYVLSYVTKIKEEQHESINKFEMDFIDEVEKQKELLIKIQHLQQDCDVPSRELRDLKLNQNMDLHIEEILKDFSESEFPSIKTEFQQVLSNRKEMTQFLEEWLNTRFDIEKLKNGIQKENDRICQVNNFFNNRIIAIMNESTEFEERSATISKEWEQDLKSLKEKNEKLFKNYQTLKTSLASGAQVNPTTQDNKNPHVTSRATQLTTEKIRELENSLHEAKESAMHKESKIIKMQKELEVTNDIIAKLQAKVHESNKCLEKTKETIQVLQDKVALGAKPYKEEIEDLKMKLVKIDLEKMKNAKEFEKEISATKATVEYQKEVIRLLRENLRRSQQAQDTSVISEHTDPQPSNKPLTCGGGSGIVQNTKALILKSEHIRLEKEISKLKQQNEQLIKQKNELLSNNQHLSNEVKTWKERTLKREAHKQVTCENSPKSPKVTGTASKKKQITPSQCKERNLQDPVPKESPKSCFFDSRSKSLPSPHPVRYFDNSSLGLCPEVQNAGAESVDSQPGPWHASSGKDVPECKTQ
Data set [4] deals with T2, Kinesin-like protein KIF20B (Homo sapiens, UniProt Q96Q89). Particulars: 1 to 20 uM.
T2 sequence (Q96Q89 whole entry, the tested form may be a part): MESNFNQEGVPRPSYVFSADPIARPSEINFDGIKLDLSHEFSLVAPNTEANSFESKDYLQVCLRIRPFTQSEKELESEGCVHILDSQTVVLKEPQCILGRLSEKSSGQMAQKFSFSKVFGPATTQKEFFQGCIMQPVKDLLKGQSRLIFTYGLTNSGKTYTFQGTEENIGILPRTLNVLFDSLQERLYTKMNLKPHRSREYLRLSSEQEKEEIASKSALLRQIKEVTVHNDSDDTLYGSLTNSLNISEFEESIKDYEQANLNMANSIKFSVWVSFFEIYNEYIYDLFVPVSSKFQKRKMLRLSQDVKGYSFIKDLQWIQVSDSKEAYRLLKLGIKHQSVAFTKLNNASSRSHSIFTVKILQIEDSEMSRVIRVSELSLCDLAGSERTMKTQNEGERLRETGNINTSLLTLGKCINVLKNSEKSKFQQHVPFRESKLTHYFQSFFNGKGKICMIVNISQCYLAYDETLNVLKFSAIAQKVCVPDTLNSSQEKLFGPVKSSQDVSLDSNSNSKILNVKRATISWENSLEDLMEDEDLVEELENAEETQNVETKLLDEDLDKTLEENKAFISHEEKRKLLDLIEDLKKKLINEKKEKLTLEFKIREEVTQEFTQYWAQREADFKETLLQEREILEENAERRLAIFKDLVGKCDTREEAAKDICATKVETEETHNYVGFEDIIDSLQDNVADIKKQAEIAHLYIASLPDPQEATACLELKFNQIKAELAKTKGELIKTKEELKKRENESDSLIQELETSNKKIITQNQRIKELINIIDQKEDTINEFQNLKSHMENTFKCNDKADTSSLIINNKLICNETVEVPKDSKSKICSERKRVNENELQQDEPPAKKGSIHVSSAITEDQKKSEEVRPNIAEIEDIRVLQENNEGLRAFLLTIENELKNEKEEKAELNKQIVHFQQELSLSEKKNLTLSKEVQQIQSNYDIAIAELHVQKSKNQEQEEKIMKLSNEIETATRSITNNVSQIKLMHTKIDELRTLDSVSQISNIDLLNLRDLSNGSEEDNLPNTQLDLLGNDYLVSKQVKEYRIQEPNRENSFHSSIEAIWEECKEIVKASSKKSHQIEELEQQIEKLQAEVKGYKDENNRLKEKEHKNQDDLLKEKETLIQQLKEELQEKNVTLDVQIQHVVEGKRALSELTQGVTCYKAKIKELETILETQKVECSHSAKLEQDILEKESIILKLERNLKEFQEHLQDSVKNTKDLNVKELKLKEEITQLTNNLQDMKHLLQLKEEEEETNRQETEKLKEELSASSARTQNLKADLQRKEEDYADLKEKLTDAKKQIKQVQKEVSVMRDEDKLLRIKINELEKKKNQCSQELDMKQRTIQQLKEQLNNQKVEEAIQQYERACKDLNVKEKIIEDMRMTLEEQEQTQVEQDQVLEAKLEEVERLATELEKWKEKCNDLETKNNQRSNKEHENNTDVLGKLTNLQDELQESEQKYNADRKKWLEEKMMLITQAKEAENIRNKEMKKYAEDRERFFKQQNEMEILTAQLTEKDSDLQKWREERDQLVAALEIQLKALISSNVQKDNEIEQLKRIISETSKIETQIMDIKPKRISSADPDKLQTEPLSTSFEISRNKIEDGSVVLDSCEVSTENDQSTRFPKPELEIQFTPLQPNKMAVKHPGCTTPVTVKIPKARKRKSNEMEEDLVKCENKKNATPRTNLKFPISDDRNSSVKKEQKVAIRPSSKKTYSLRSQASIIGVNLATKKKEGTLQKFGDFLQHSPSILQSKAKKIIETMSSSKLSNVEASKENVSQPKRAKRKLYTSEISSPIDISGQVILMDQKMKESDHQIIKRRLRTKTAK
The target in data set [5] is T2, Kinesin-like protein KIF20B. The experiment in a line: Inhibition of microtubule-stimulated ATPase activity of N-terminal His6-tagged/SUMO-fused human MPP1 motor domain (57 to 491 residues) expressed in Escherichia coli BL21 CodonPlus by pyruvate kinase/lactate dehydrogenase-linked assay.
The target is the same in data set [6]. The experiment in a line: Inhibition of basal ATPase activity of N-terminal His6-tagged/SUMO-fused human MPP1 motor domain (2 to 477 residues) expressed in Escherichia coli BL21 CodonPlus by pyruvate kinase/lactate dehydrogenase-linked assay.
For data set [7] the target is unchanged. Particulars: 1 to 20 uM. The source holds these as a separate data set.
Data set [8] shares this target. To be noted: 1 to 20 uM. The source holds these as a separate data set.
For data set [9], the target named is T3, Kinesin-like protein KIF9 (Homo sapiens) (UniProt Q9HAQ2).
T3 sequence (whole entry): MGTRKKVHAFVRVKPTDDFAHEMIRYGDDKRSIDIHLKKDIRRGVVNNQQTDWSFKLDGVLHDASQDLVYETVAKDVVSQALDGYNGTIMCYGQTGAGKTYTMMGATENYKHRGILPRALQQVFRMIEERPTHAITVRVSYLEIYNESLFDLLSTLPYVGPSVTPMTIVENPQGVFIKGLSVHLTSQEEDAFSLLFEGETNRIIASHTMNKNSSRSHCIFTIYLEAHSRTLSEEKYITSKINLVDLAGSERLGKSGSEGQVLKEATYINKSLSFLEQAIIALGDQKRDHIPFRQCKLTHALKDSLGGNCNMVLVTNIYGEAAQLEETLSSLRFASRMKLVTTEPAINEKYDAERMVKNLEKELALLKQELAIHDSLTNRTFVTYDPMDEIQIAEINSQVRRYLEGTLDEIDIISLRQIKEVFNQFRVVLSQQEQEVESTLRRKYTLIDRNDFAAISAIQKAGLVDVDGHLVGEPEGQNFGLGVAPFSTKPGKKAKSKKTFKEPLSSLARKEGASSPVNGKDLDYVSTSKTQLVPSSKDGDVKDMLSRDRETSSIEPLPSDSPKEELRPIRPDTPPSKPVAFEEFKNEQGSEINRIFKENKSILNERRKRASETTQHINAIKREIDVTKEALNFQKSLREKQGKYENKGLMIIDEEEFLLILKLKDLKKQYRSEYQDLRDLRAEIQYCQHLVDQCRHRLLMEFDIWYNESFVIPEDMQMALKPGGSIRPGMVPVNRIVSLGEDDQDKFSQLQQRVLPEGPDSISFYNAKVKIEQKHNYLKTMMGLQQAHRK
The experiment in a line: Inhibition of basal ATPase activity of human Kif9 at 200 uM by pyruvate kinase/lactate dehydrogenase-linked assay.

Data set [10] is described as follows: Half life in human liver microsomes at 3 uM by LC-MS/MS method. It is filed as ADME. In general terms: Liver microsomes are vesicles of endoplasmic reticulum, rich in cytochrome P450 enzymes.
Data set [11] is described as follows: Cytotoxicity against human HCT116 cells assessed as growth inhibition after 72 hrs by Alamar Blue assay. Type of data set: functional, cell-based. To be noted: HCT-116, 72 h. (In general: Alamar Blue is a resazurin reagent that responds to reducing activity.)
Data set [12] is described as follows: Intrinsic clearance in human liver microsomes assessed per mg of protein at 3 uM after 5 to 60 mins by LC-MS/MS method. It is filed as ADME. To be noted: read-out: CLH.
For data set [13], the target named is T2, Kinesin-like protein KIF20B. The experiment in a line: Inhibition of basal ATPase activity of N-terminal His6-tagged/SUMO-fused human MPP1 motor domain (57 to 491 residues) expressed in Escherichia coli BL21 CodonPlus in presence of 0.1% Tween-20 by pyruvate kinase/lactate dehydrogenase-linked assay.
Data set [14] is described as follows: Solubility of the compound in phosphate buffered saline at pH 6 after 2 hrs by turbidimetric method. Type of data set: physicochemical.
A short description of data set [15]: Apparent passive permeability of the compound at 10 uM after 5 hrs by PAMPA. It is filed as ADME. To be noted: pampa, 5 h, 10 µM. On the technique in general: PAMPA measures passive passage across an artificial lipid membrane.
Data set [16] is described as follows: Solubility of the compound in phosphate buffered saline at pH 7.4 after 2 hrs by turbidimetric method. Type of data set: physicochemical.

≈ marks a conversion by molar mass, not a printed value. Calls of active or inactive are those of the source. Some results are limits rather than exact numbers.

For `CCCCCC(=O)Cc1cc(O)cc2c1C(=O)Oc1cc(O)c(C(=O)O)c(CCCCC)c1O2` [PHYSODIC ACID], the inhibition in [1] and in data set [9] was 40% each time. Also, the EC50 (in general, the concentration giving half of the maximal effect) in data set [2] is 37.3 µM; in data set [11], above 50 µM. Further, the IC50 – broadly, the concentration at which inhibition is half-maximal – in [3] is 29.6 µM; in data set [5] it was 5.8 µM; in data set [6] it was 10.4 µM. Also, the inhibition entry in data set [4], in [7], in data set [8] and in data set [13] was “Active” in each case. The Imax in data set [5] and in data set [6] was 90% in each case. Moreover, in data set [10], the half-life – broadly, the time needed for the level to fall by half in the phase considered – at 3 µM was 4.5 min. Besides, the microsomal CLint at 3 µM in data set [12] stood at 310 µL/min/mg. The results for the kinetic solubility at 2 h in [14] and in data set [16] were 65 µM (≈ 30.6 µg/mL) and above 100 µM, respectively. Also, the Papp result in [15] is recorded as “Impermeable”.
